Measured values published in US20120328516A1, “METHOD OF RADIOTHERAPY USING A RADIOLABELLED RGD PEPTIDE” (priority 2009, published 2012).
Starred links: 1 amine or outer side, 2 acyl side, 3 side chain; linkers in the order of their positions; H or OH if unused. Positions of bridges follow the written chain, without caps; N, C: chain ends. Residues, ends and D or L forms follow the SMILES beside them. Groups on a side chain read outwards from the residue. *: point of attachment. X3 = C/C(=N/O)C(C)(C)NCCC(CCNC(C)(C)/C(C)=N\O)CCN*; Glutaryl = O=C(CCCC(=O)[*:2])[*:1]; X2 = NC(=O)COCC(=O)NCCOCCOCCOCCN*

How the values were obtained:
[1] = system: subcutaneous U87 tumour; assay: co-registered coronal micro-PET/CT imaging of mouse bearing a subcutaneous U87 tumour; type: in vivo, C57/BI6 mouse; settings: same mouse imaged with ^18F-FDG (3A) and ^18F-fluciclatide (3B); comparison of the two images
Source text: FIGS. 3A and 3B show co-registered coronal micro-PET/CT images of the same C57/BI6 mouse bearing a subcutaneous U87 tumour on its left side. The emission image in 3A is that of ^18F-FDG and that in 3B is of ^18F-fluciclatide.

[2] = system: alphavbeta3/5 integrins; assay: co-registered contrast-enhanced CT and SPECT emission imaging of a necrotic lymph node metastasis for a primary breast cancer; type: in vivo
Source text: The emission image was obtained for ^99mTc-maraciclatide. The necrotic centre in the CT image which corresponds to no uptake of the agent in the SPECT image.

Structure (SMILES)	tumour uptake volume [1]	uptake of the agent in the necrotic centre ([2]; SPECT image, necrotic centre of lymph node metastasis seen in CT image)	uptake in the sternum ([2]; concluded to be due to bone marrow uptake)	region surrounding the necrotic centre due to angiogenesis and other expressions of alphavbeta3/5 integrins ([2]; emission image co-registered with CT)
OC[C@H]1OC(O)[C@H](F)[C@@H](O)[C@@H]1O (stereo partly shown) [^18F-FDG, fluorodeoxyglucose, reference compound]	difference in tumour uptake volumes	–	–	–
C/C(=N/O)C(C)(C)NCCC(CCNC(=O)CCCC(=O)NCCCC[C@@H]1NC(=O)CSC[C@@H](C(=O)NCCOCCOCCOCCNC(=O)COCC(N)=O)NC(=O)[C@H](Cc2ccccc2)NC(=O)[C@@H]2CSSC[C@H](NC1=O)C(=O)N[C@@H](CCCNC(=N)N)C(=O)NCC(=O)N[C@@H](CC(=O)O)C(=O)N2)CCNC(C)(C)/C(C)=N\O (stereo partly shown) [^99mTc-maraciclatide, metal not drawn] ({CH2CO}-K([Glutaryl-X3])CRGDCFC-X2; disulfide 2-6; thioether N-8)	–	no uptake	uptake in the sternum	highlighted
